Laboratory results reported in patent publication US9993424B2, “Intravaginal matrix drug delivery devices” (Allergan Pharmaceuticals International Limited, priority 2002, dated 2018).
In brackets after ≈: the same amount, converted by molar mass.

Assay: Solubility in silicone oil at 25° C.
Details: oil or lipid

Structure (SMILES) | solubility
Cc1ncc([N+](=O)[O-])n1CCO [metronidazole] | 6 µg/mL (≈ 35.1 µM)
C[C@]12CC[C@H]3[C@@H](CCC4=CC(=O)CC[C@@]43C)[C@@H]1CC[C@@H]2O [testosterone] | 140 µg/mL (≈ 485 µM)
Nc1nc2c(ncn2COCCO)c(=O)[nH]1 [acyclovir] | < 80 µg/mL
CC(C)N1CCN(c2ccc(OCC3COC(Cn4cncn4)(c4ccc(Cl)cc4Cl)O3)cc2)CC1 (stereo not shown) [terconazole] | 200 µg/mL (≈ 376 µM)
